Measurements from patent US20130096067A1, “DROSOPHILA TUMOR STEM CELL MODEL AND USES THEREOF” (priority 2011, published 2013).
Structures can show the parent of a compound that is named as a salt.

Tested on: Raf-1^gof intestinal tumors
Assay: Luciferase screen of FDA-approved (NCI) drugs in 96-well plates, flies with Raf-1^gof intestinal tumors; on Avg (3 + 6): test concentration or dose not given here; on Log2 (fold): test concentration or dose not given here
Assay type: in vivo, Drosophila
[1] = average of Day 3 and Day 6 fold
[2] = log2 of the Day 3 fold difference in luciferase relative to DMSO controls
[3] = luciferase activity relative to DMSO controls, single dose of drug for three days, 96-well plates
[4] = six-day protocol: single dose for three days, then another dose for three more days

Molecule	Avg (3 + 6) [1]	Log2 (fold) [2]	Day 3 Fold [3]	Day 6 Fold [4]	Avg (3 + 6) (in vivo)	Day 3 Fold (in vivo)	Day 6 Fold (in vivo)	Log2 (fold) (in vivo)	Day 3 Fold (po, 72 h)	Log2 (fold) (po, 72 h)
CC(C)Cn1cnc2c(N)nc3ccccc3c21 [Imiquimod]	0.888 fold	0.086	1.061 fold	0.715 fold	–	–	–	–	–	–
O=C1c2c(O)ccc(O)c2C(=O)c2c(NCCNCCO)ccc(NCCNCCO)c21 [Mitoxantrone]	0.883 fold	−0.303	0.810 fold	0.955 fold	–	–	–	–	–	–
Oc1ncnc2[nH]ncc12 [Allopurinol]	1.997 fold	1.281	2.430 fold	1.565 fold	–	–	–	–	–	–
O=P1(N(CCCl)CCCl)NCCCO1 (stereo not shown) [Cyclophosphamide]	–	–	–	–	0.857 fold	0.982 fold	0.732 fold	−0.025	–	–
O=P(O)(O)C(O)(Cn1ccnc1)P(=O)(O)O [Zolendronic acid]	0.999 fold	−0.115	0.923 fold	1.076 fold	–	–	–	–	–	–
NC(=O)NO [Hydroxyurea]	0.990 fold	−0.184	0.880 fold	1.099 fold	–	–	–	–	–	–
N.N.O=C([O-])C1(C(=O)[O-])CCC1.[Pt+2] [Carboplatin]	1.159 fold	0.059	1.042 fold	1.276 fold	–	–	–	–	–	–
C[C@]12CC[C@@H]3c4ccc(O)cc4C[C@@H](CCCCCCCCC[S+]([O-])CCCC(F)(F)C(F)(F)F)[C@H]3[C@@H]1CC[C@@H]2O (stereo partly shown) [Fulvestrant]	1.172 fold	−0.221	0.858 fold	1.486 fold	–	–	–	–	–	–
O=c1[nH]cc(F)c(=O)[nH]1 [Fluorouracil]	0.770 fold	−0.448	0.733 fold	0.806 fold	–	–	–	–	–	–
Cn1nnc2c(C(N)=O)ncn2c1=O [Temozolomide]	1.138 fold	−0.032	0.978 fold	1.298 fold	–	–	–	–	–	–
CCN(CC)CCNC(=O)c1c(C)[nH]c(/C=C2\C(=O)Nc3ccc(F)cc32)c1C [Sunitinib]	0.816 fold	−0.243	0.845 fold	0.788 fold	–	–	–	–	–	–
COc1cccc2c1C(=O)c1c(O)c3c(c(O)c1C2=O)C[C@@](O)(C(C)=O)C[C@@H]3O[C@H]1C[C@H](N)[C@H](O)[C@H](C)O1 [Daunorubicin HCl]	0.227 fold	−1.484	0.358 fold	0.096 fold	–	–	–	–	–	–
Nc1nc2[nH]cc(CCc3ccc(C(=O)N[C@@H](CCC(=O)O)C(=O)O)cc3)c2c(=O)[nH]1 [Pemetrexed]	0.365 fold	−0.783	0.581 fold	0.149 fold	–	–	–	–	–	–
Nc1nc(F)nc2c1ncn2[C@@H]1O[C@H](CO)[C@@H](O)[C@@H]1O [Fludarabine]	1.191 fold	–	–	–	–	–	–	–	1.192 fold	0.253
CC(=O)O[C@@]12CO[C@@H]1C[C@H](O)[C@@]1(C)C(=O)[C@H](O)C3=C(C)[C@@H](OC(=O)[C@H](O)[C@@H](NC(=O)OC(C)(C)C)c4ccccc4)C[C@@](O)([C@@H](OC(=O)c4ccccc4)[C@H]21)C3(C)C [Docetaxel]	0.514 fold	−0.887	0.541 fold	0.487 fold	–	–	–	–	–	–
CCC1=C[C@@H]2CN(C1)Cc1c([nH]c3ccccc13)[C@@](C(=O)OC)(c1cc3c(cc1OC)N(C)[C@H]1[C@@](O)(C(=O)OC)[C@H](OC(C)=O)[C@]4(CC)C=CCN5CC[C@]31[C@@H]54)C2 [Vinorelbine tartrate]	0.761 fold	−0.190	0.877 fold	0.645 fold	–	–	–	–	–	–

Molecule	Avg (3 + 6) [1]	Log2 (fold) [2]	Day 3 Fold [3]	Day 6 Fold [4]	Avg (3 + 6) (in vivo)	Day 3 Fold (in vivo)	Day 6 Fold (in vivo)	Log2 (fold) (in vivo)	Day 3 Fold (po, 72 h)	Log2 (fold) (po, 72 h)
Nc1cccc2c1CN(C1CCC(=O)NC1=O)C2=O (stereo not shown) [Lenalidomide]	0.853 fold	−0.117	0.922 fold	0.784 fold	–	–	–	–	–	–
Cc1cn(-c2cc(NC(=O)c3ccc(C)c(Nc4nccc(-c5cccnc5)n4)c3)cc(C(F)(F)F)c2)cn1 [Nilotinib]	0.804 fold	−0.615	0.653 fold	0.956 fold	–	–	–	–	–	–
O=C(CCCCCCC(=O)Nc1ccccc1)NO [Vorinostat]	0.749 fold	−0.703	0.614 fold	0.883 fold	–	–	–	–	–	–
S=c1nc[nH]c2nc[nH]c12 [Mercaptopurine]	0.945 fold	0.101	1.072 fold	0.818 fold	–	–	–	–	–	–
N[C@@H](Cc1ccc(N(CCCl)CCCl)cc1)C(=O)O [Melphalan]	0.939 fold	0.001	1.001 fold	0.876 fold	–	–	–	–	–	–
S=P(N1CC1)(N1CC1)N1CC1 [Thiotepa]	–	–	–	–	0.344 fold	0.353 fold	0.335 fold	−1.501	–	–
O=C1[O][Pt]2([NH][C@@H]3CCCC[C@H]3[NH]2)[O]C1=O [Oxaliplatin]	1.082 fold	0.296	1.227 fold	0.936 fold	–	–	–	–	–	–
CS(=O)(=O)CCNCc1ccc(-c2ccc3ncnc(Nc4ccc(OCc5cccc(F)c5)c(Cl)c4)c3c2)o1 [Lapatinib]	0.976 fold	−0.097	0.935 fold	1.017 fold	–	–	–	–	–	–
CC(C)(C#N)c1cc(Cn2cncn2)cc(C(C)(C)C#N)c1 [Anastrozole]	1.000 fold	−0.053	0.964 fold	1.036 fold	–	–	–	–	–	–
Arsenic trioxide	0.981 fold	−0.074	0.950 fold	1.012 fold	–	–	–	–	–	–
COc1nc(N)nc2c1ncn2[C@@H]1O[C@H](CO)[C@@H](O)[C@@H]1O [Nelarabine]	1.194 fold	0.166	1.122 fold	1.266 fold	–	–	–	–	–	–
COc1cc2ncnc(Nc3ccc(F)c(Cl)c3)c2cc1OCCCN1CCOCC1 [Gefitinib]	–	–	–	–	0.886 fold	–	–	–	–	–
C[C@@H](CN1CC(=O)NC(=O)C1)N1CC(=O)NC(=O)C1 [Dexrazoxone]	0.599 fold	−0.428	0.743 fold	0.454 fold	–	–	–	–	–	–
CC[C@@]1(O)C(=O)OCc2c1cc1n(c2=O)Cc2cc3c(CN(C)C)c(O)ccc3nc2-1 [Topotecan HCl]	0.233 fold	−1.600	0.330 fold	0.137 fold	–	–	–	–	–	–
CS(=O)(=O)OCCCCOS(C)(=O)=O [Busulfan]	0.936 fold	0.166	1.122 fold	0.750 fold	–	–	–	–	–	–
Nc1nc(Cl)nc2c1ncn2[C@H]1C[C@H](O)[C@@H](CO)O1 [Cladribine]	0.852 fold	0.072	1.051 fold	0.652 fold	–	–	–	–	–	–
